Laboratory results published in ChEMBL document CHEMBL1147960, “Spectroscopic studies of DNA binding modes of cation-substituted anthrapyrazoles derived from emodin” (Eur J Med Chem, 2007).

Legend:
DNA = assay: Binding affinity to calf thymus DNA; assay type: nucleic-acid assay, Bos taurus
[1] = Cytotoxicity against mouse LLC cells; assay type: functional, cell-based; settings: Lewis lung carcinoma
HepG2 = assay: Cytotoxicity against human HepG2 cells; assay type: functional, cell-based
B16 = assay: Cytotoxicity against mouse B16 cells; assay type: functional, cell-based

Row | SMILES | Kb (DNA) [M⁻¹] | IC50 [1] [µM] | IC50 (HepG2) [µM] | IC50 (B16) [µM]
1 | Cc1cc(O)c2c(c1)C(=O)c1cc(O)cc(O)c1C2=O [EMODIN] | 68000 | > 100 | 55.1 | > 100
2 | COc1cc(OC)c2c(c1)C(=O)c1cc(C)cc3c1c-2nn3CCN1CCN(C)CC1 | 698000 | 8.9 | 7.2 | 20.1
3 | CCN(CC)CCn1nc2c3c(cc(C)cc31)C(=O)c1cc(OC)cc(OC)c1-2 | 552000 | 4.5 | 4.9 | 3.6
4 | CCN(CC)CCNCCn1nc2c3c(cc(C)cc31)C(=O)c1cc(OC)cc(OC)c1-2 | 253000 | 12.8 | 37.6 | 10.1
